Here are results for 14 compounds from BindingDB's records for doi:10.1124/mol.51.2.350 (Schering-Plough Research Institute, 1997).

For orientation: Ki means the equilibrium dissociation constant of an inhibitor or competing ligand from its target. Higher therefore signals a looser hold on the target.

Square brackets hold non-standard residues; d marks the D form. Peptide text beside a SMILES is read from it. * marks the point of attachment. Phe(4-F) = N[C@@H](Cc1ccc(F)cc1)C(=O)O; hArg = N=C(N)NCCCC[C@H](N)C(=O)O; Cha = N[C@@H](CC1CCCCC1)C(=O)O; X1 = CC(=O)C(Cc1ccccc1)N*

This assay addresses Prothrombin (Homo sapiens, UniProt P00734).

H-SLIGKV-NH2 [CAS_190383-13-2] came in with a Ki greater than 10 µM.

Consider `CSCC[C@H](NC(=O)[C@H](CC(C)C)NC(=O)CNC(=O)[C@H](Cc1ccccc1)NC(=O)[C@H](Cc1ccccc1)NC(=O)[C@H](CCC(N)=O)NC(=O)[C@H](CCC(N)=O)NC(=O)[C@@H]1CCCN1C(=O)[C@H](CCCCN)NC(=O)[C@@H]1CCCN1C(=O)[C@@H](N)CCCN=C(N)N)C(N)=O` [Arg-Pro-Lys-Pro-Gln-Gln-Phe-Phe-Gly-Leu-Met NH2], for which the Ki was greater than 10 µM. To H-FSLLRN-NH2 [FSLLRN-NH2] belongs greater than 10 µM. `CC(C)C[C@H](NC(=O)[C@H](CC(C)C)NC(=O)[C@H](Cc1ccccc1)NC(=O)[C@@H](N)CO)C(=O)N[C@@H](CCCN=C(N)N)C(=O)O` [SFLLR-OH] showed a Ki greater than 10 µM.

In the case of `CC(C)C[C@H](NC(=O)CNC(=O)[C@H](CC(N)=O)NC(=O)[C@H](CCCCN)NC(=O)[C@H](CC(=O)O)NC(=O)[C@H](CO)NC(=O)[C@H](Cc1ccccc1)NC(=O)[C@H](CO)NC(=O)[C@H](CCCNC(=N)N)NC(=O)[C@H](Cc1cnc[nH]1)NC(=O)[C@H](CC(N)=O)NC(=O)CNC(=O)[C@@H](NC(=O)[C@H](C)NC(=O)[C@H](Cc1cnc[nH]1)NC(=O)[C@@H]1CCCN1C(=O)CNC(=O)[C@H](CC(C)C)NC(=O)[C@H](CC(C)C)NC(=O)[C@H](Cc1ccc(O)cc1)NC(=O)CNC(=O)[C@H](C)NC(=O)[C@H](CO)NC(=O)[C@H](CC(N)=O)NC(=O)[C@H](CC(C)C)NC(=O)[C@@H](NC(=O)[C@H](Cc1c[nH]c2ccccc12)NC(=O)CN)[C@@H](C)O)C(C)C)C(=O)N[C@H](C(=O)N[C@@H](CO)C(=O)O)[C@@H](C)O` [Galanin, Human], the inhibition constant Ki was greater than 10 µM. As to `NC(N)=NCCCC(N)C(=O)N1CCCC1C(=O)N1CCCC1C(=O)NCC(=O)NC(Cc1ccccc1)C(=O)NC(CO)C(=O)N1CCCC1C(=O)NC(Cc1ccccc1)C(=O)O` (centres undefined) [CAS_58-82-2], the Ki was greater than 10 µM. `C[C@H](N)C(=O)N[C@@H](Cc1ccc(F)cc1)C(=O)N[C@@H](CCCN=C(N)N)C(=O)N[C@@H](CC1CCCCC1)C(=O)N[C@@H](CCCCN=C(N)N)C(=O)N[C@@H](Cc1ccccc1)C(N)=O` [L-Ala-4-Fluoro-L-Phe-L-Arg-3-cyclohexyl-L-Ala-N-amidino-L-Lys-L-Phe-NH2] (H-A[Phe(4-F)]R[Cha][hArg]F-NH2): the Ki is 0.024 µM.

Compound `CSCCC(NC(=O)C(CC(C)C)NC(=O)CNC(=O)C(NC(=O)C(Cc1ccccc1)NC(=O)C(CO)NC(=O)C(CC(=O)O)NC(=O)C(NC(=O)C(CCCCN)NC(=O)C(N)Cc1cnc[nH]1)C(C)O)C(C)C)C(N)=O` (stereo not drawn) [Neurokinin alpha] showed an inhibitory constant (Ki) greater than 10 µM. Take `CC(C)C[C@H](NC(=O)[C@H](CC(C)C)NC(=O)[C@H](Cc1ccccc1)NC(=O)[C@@H](N)CO)C(=O)N[C@@H](CCCN=C(N)N)C(=O)N[C@@H](CC(N)=O)C(=O)O` [SFLLRN-OH]: the inhibition constant Ki was determined as 0.54 µM.

`CC(C)CC(NC(=O)C(Cc1ccccc1)NC(=O)C(N)CO)C(=O)NC(CC(C)C)C(=O)NC(CCCN=C(N)N)C(=O)NC(CC(N)=O)C(=O)N1CCCC1C(=O)NC(CC(N)=O)C(=O)NC(CC(=O)O)C(=O)NC(CCCCN)C(=O)NC(Cc1ccc(O)cc1)C(=O)NC(CCC(=O)O)C(=O)N1CCCC1C(=O)NC(Cc1ccccc1)C(=O)O` (centres undefined) [SFLLRNPNDKYEPF-OH] (H-SFLLRNPNDKYEPF-OH; configuration not given here) registered a Ki of 1.1 µM. Turning to `CCC(C)C(NC(=O)C(CO)NC(=O)C(CC(N)=O)NC(=O)C(CC(C)C)NC(=O)C(Cc1ccc(O)cc1)NC(=O)C(CCCCN)NC(=O)C(CCCCN)NC(=O)C(NC(=O)C(C)NC(=O)C(CCSC)NC(=O)C(CCC(N)=O)NC(=O)C(CCCCN)NC(=O)C(CCCN=C(N)N)NC(=O)C(CC(C)C)NC(=O)C(CCCN=C(N)N)NC(=O)C(NC(=O)C(Cc1ccc(O)cc1)NC(=O)C(CC(N)=O)NC(=O)C(CC(=O)O)NC(=O)C(NC(=O)C(Cc1ccccc1)NC(=O)C(NC(=O)C(C)NC(=O)C(CC(=O)O)NC(=O)C(CO)NC(=O)C(N)Cc1cnc[nH]1)C(C)C)C(C)O)C(C)O)C(C)C)C(=O)NC(CC(C)C)C(=O)NC(CC(N)=O)C(=O)O` (centres undefined) [CAS_37221-79-7], the inhibition constant (Ki) is greater than 10 µM. The compound `CC(C)C[C@H](NC(=O)[C@H](CC(C)C)NC(=O)[C@H](Cc1ccccc1)NC(=O)[C@@H](N)CO)C(=O)N[C@@H](CCCN=C(N)N)C(=O)N[C@@H](CC(N)=O)C(N)=O` [CAS_141923-40-2] yielded a Ki of 0.168 µM. To `CC(=O)O[C@]1(C(C)=O)CC[C@H]2[C@@H]3C[C@H](C)C4=CC(=O)CC[C@]4(C)C3CC[C@@]21C` (some centres undefined) belongs greater than 10 µM; to `CCC(C)C(NC(=O)C(Cc1ccc(O)cc1)NC(=O)C(NC(=O)C(CCCN=C(N)N)NC(=O)C(N)CC(=O)O)C(C)C)C(=O)NC(Cc1cnc[nH]1)C(=O)NC(Cc1cnc[nH]1)C(=O)N1CCCC1C(=O)NC(Cc1ccccc1)C(C)=O` (centres undefined) [NSC_439662] (H-DRVYIHHP-X1; configuration not given here), greater than 10 µM.
